Results reported in patent publication US20060110803A1 (Crucell Holland B.V., priority 2003, published 2006).

Assays:
[1] = tested on: antibodies in sera of individuals which have been and/or are infected by SARS-CoV (SARS-green, SARS-yellow, 1a, 1b, 2, 6, 37, 62, London); format: binding, human
[2] = tested on: antibodies in control sera (pooled serum of 10 healthy LUMC hospital workers; commercial negative donor pooled serum); format: binding, human

KPTKRSFIEDLLF [SEQ ID NO:1244]
recognition by sera of SARS-CoV infected individuals (domains homologous with OC43 spike) [1]: recognition by sera derived from individuals which have been and/or are still infected by SARS-CoV | recognition by control sera (domains homologous with OC43 spike) [2]: recognition by control sera derived from individuals which have not been infected by SARS-CoV

VLYENQKQIANQFNKAISQIQ [SEQ ID NO:1245]
recognition by sera of SARS-CoV infected individuals (domains homologous with OC43 spike) [1]: recognition by sera derived from individuals which have been and/or are still infected by SARS-CoV | recognition by control sera (domains homologous with OC43 spike) [2]: recognition by control sera derived from individuals which have not been infected by SARS-CoV
